Measured values reported in PubChem BioAssay (NCI).
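Five concentrations, 48 hours, 96-well plates. TGI: concentration producing complete growth inhibition.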

What was measured:
Assay in all cases: NCI anticancer screen, dose series, 48 h
ACHN renal = tested on: ACHN renal
SN12C renal = tested on: SN12C renal
MCF7 breast = tested on: MCF7 breast
786-0 renal = tested on: 786-0 renal
HCT-116 colon = tested on: HCT-116 colon
SK-OV-3 ovarian = tested on: SK-OV-3 ovarian
UACC-62 melanoma = tested on: UACC-62 melanoma
SK-MEL-2 melanoma = tested on: SK-MEL-2 melanoma
SF-539 CNS = tested on: SF-539 CNS
M14 melanoma = tested on: M14 melanoma
SNB-75 CNS = tested on: SNB-75 CNS
COLO 205 colon = tested on: COLO 205 colon
SNB-19 CNS = tested on: SNB-19 CNS
BT-549 breast = tested on: BT-549 breast
MDA-MB-435 = tested on: MDA-MB-435
OVCAR-8 ovarian = tested on: OVCAR-8 ovarian
MDA-N = tested on: MDA-N
U251 CNS = tested on: U251 CNS
SK-MEL-28 melanoma = tested on: SK-MEL-28 melanoma
A549 NSCLC = tested on: A549 NSCLC
SR leukemia = tested on: SR leukemia
HT29 colon = tested on: HT29 colon
K-562 leukemia = tested on: K-562 leukemia
OVCAR-4 ovarian = tested on: OVCAR-4 ovarian
HOP-62 NSCLC = tested on: HOP-62 NSCLC
OVCAR-5 ovarian = tested on: OVCAR-5 ovarian
MALME-3M melanoma = tested on: MALME-3M melanoma
LOX IMVI melanoma = tested on: LOX IMVI melanoma
UACC-257 melanoma = tested on: UACC-257 melanoma
T-47D breast = tested on: T-47D breast
A498 renal = tested on: A498 renal
HL-60(TB) leukemia = tested on: HL-60(TB) leukemia
SK-MEL-5 melanoma = tested on: SK-MEL-5 melanoma
EKVX NSCLC = tested on: EKVX NSCLC
MOLT-4 leukemia = tested on: MOLT-4 leukemia
DU-145 prostate = tested on: DU-145 prostate
SF-295 CNS = tested on: SF-295 CNS
SF-268 CNS = tested on: SF-268 CNS
CCRF-CEM leukemia = tested on: CCRF-CEM leukemia
TK-10 renal = tested on: TK-10 renal
UO-31 renal = tested on: UO-31 renal
IGROV1 ovarian = tested on: IGROV1 ovarian
NCI/ADR-RES ovarian = tested on: NCI/ADR-RES ovarian
SW-620 colon = tested on: SW-620 colon
RXF 393 renal = tested on: RXF 393 renal
RPMI-8226 leukemia = tested on: RPMI-8226 leukemia
NCI-H23 lung = tested on: NCI-H23 lung
KM12 colon = tested on: KM12 colon
NCI-H226 lung = tested on: NCI-H226 lung
HCT-15 colon = tested on: HCT-15 colon
OVCAR-3 ovarian = tested on: OVCAR-3 ovarian
HCC-2998 colon = tested on: HCC-2998 colon
MDA-MB-231 breast = tested on: MDA-MB-231 breast
HS 578T breast = tested on: HS 578T breast
NCI-H460 lung = tested on: NCI-H460 lung

O=C1c2c(ccc3c2CCC3)CC1Cc1ccc2c(c1)CCC2 (stereo not given)
TGI (ACHN renal): > 100 µM | TGI (SN12C renal): > 100 µM | TGI (MCF7 breast): 96.6 µM | TGI (786-0 renal): 99.1 µM | TGI (HCT-116 colon): 47.2 µM | TGI (SK-OV-3 ovarian): > 100 µM | TGI (UACC-62 melanoma): 42.7 µM | TGI (SK-MEL-2 melanoma): 73.8 µM | TGI (SF-539 CNS): > 100 µM | TGI (M14 melanoma): > 100 µM | TGI (SNB-75 CNS): 56 µM | TGI (COLO 205 colon): 51.4 µM | TGI (SNB-19 CNS): > 100 µM | TGI (BT-549 breast): > 100 µM | TGI (MDA-MB-435): 92.4 µM | TGI (OVCAR-8 ovarian): > 100 µM | TGI (MDA-N): > 100 µM | TGI (U251 CNS): > 100 µM | TGI (SK-MEL-28 melanoma): > 100 µM | TGI (A549 NSCLC): > 100 µM | TGI (SR leukemia): 30.9 µM | TGI (HT29 colon): 60.9 µM | TGI (K-562 leukemia): 80.1 µM | TGI (OVCAR-4 ovarian): 85.4 µM | TGI (HOP-62 NSCLC): 94.2 µM | TGI (OVCAR-5 ovarian): > 100 µM | TGI (MALME-3M melanoma): > 100 µM | TGI (LOX IMVI melanoma): > 100 µM | TGI (UACC-257 melanoma): 61.9 µM | TGI (T-47D breast): 27 µM | TGI (A498 renal): > 100 µM | TGI (HL-60(TB) leukemia): 21.7 µM | TGI (SK-MEL-5 melanoma): 27.9 µM | TGI (EKVX NSCLC): > 100 µM | TGI (MOLT-4 leukemia): 51.6 µM | TGI (DU-145 prostate): > 100 µM | TGI (SF-295 CNS): 94.3 µM | TGI (SF-268 CNS): > 100 µM | TGI (CCRF-CEM leukemia): 37.8 µM | TGI (TK-10 renal): > 100 µM | TGI (UO-31 renal): > 100 µM | TGI (IGROV1 ovarian): > 100 µM | TGI (NCI/ADR-RES ovarian): > 100 µM | TGI (SW-620 colon): > 100 µM | TGI (RXF 393 renal): 69.1 µM | TGI (RPMI-8226 leukemia): 53.1 µM | TGI (NCI-H23 lung): 85.9 µM | TGI (KM12 colon): > 100 µM | TGI (NCI-H226 lung): > 100 µM | TGI (HCT-15 colon): > 100 µM | TGI (OVCAR-3 ovarian): > 100 µM | TGI (HCC-2998 colon): > 100 µM | TGI (MDA-MB-231 breast): 49 µM | TGI (HS 578T breast): 61.6 µM | TGI (NCI-H460 lung): > 100 µM
